Assays:
Format in all cases: in vivo
[1] = tested on: ragweed (common ragweed, Ambrosia elatior); test: Test A preemergence, visual plant response rating; settings: for Ragweed plant response rating: 125 g ai/ha, preemergence, 0 to 100 scale, 0 no effect, 100 complete control; for Ragweed plant response rating (0 to 100 scale): approx. 10 days
Procedure, shortened: (§1)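 Ratings 0–100 (100 = complete control), visual, vs untreated controls at ~10 days. Application pre- or postemergence; solvent mixture with surfactant; loam/sand medium.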

[2] = tested on: pigweed (Amaranthus retroflexus); test: Test A preemergence, visual plant response rating; settings: for Pigweed plant response rating: 125 g ai/ha, preemergence, 0 to 100 scale, 0 no effect, 100 complete control; for Pigweed plant response rating (0 to 100 scale): approx. 10 days
Procedure, shortened: as §1

[3] = tested on: Italian ryegrass (Lolium multiflorum); test: Test A preemergence, visual plant response rating; settings: for Ryegrass, Italian plant response rating: 125 g ai/ha, preemergence, 0 to 100 scale, 0 no effect, 100 complete control; for Ryegrass, Italian plant response rating (0 to 100 scale): approx. 10 days
Procedure, shortened: as §1

kochia (Kochia scoparia) [4] = test: Test A preemergence, visual plant response rating; settings: for Kochia plant response rating: 125 g ai/ha, preemergence, 0 to 100 scale, 0 no effect, 100 complete control; for Kochia plant response rating (0 to 100 scale): approx. 10 days
Procedure, shortened: as §1

[5] = tested on: foxtail, giant (giant foxtail, Setaria faberii); test: Test A preemergence, visual plant response rating; settings: for Foxtail, Giant plant response rating: 125 g ai/ha, preemergence, 0 to 100 scale, 0 no effect, 100 complete control; for Foxtail, Giant plant response rating (0 to 100 scale): approx. 10 days
Procedure, shortened: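 Preemergence: seeds in loam/sand blend given directed soil spray of compound in non-phytotoxic solvent with surfactant. Postemergence: plants 2–10 cm, one- to two-leaf stage, sprayed with same formulation. Visual injury rated vs untreated controls after ~10 days in greenhouse, 0 (no effect) to 100 (complete control).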

[6] = tested on: barnyardgrass (Echinochloa crus-galli); test: Test A preemergence, visual plant response rating; settings: for Barnyardgrass plant response rating: 125 g ai/ha, preemergence, 0 to 100 scale, 0 no effect, 100 complete control; for Barnyardgrass plant response rating (0 to 100 scale): approx. 10 days
Procedure, shortened: as §1

[7] = tested on: ducksalad (Heteranhera limosa); test: Test B flooded paddy test, visual plant response rating; settings: 250 g ai/ha, Flood, applied to paddy water, 2-leaf stage, evaluated after 13 to 15 days
Procedure, shortened: (§2)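 Visual scores compare treated plants with controls after 13 to 15 days of greenhouse growth. Treatment was made into paddy water standing 3 cm above the soil, with plants at the 2-leaf stage and flooding maintained throughout.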

[8] = tested on: sedge, umbrella (small-flower umbrella sedge, Cyperus difformis); test: as above; settings: 250 g ai/ha, Flood, applied to paddy water, 2-leaf stage, evaluated after 13 to 15 days
Procedure, shortened: as §2

rice (Oryza sativa) = test: as above; settings: 250 g ai/ha, Flood, applied to paddy water, 2-leaf stage, evaluated after 13 to 15 days
Procedure, shortened: as §2

[9] = tested on: barnyardgrass (Echinochloa crus-galli); test: as above; settings: 250 g ai/ha, Flood, applied to paddy water, 2-leaf stage, evaluated after 13 to 15 days
Procedure, shortened: as §2

[10] = tested on: blackgrass (Alopecurus myosuroides); test: Test A postemergence, visual plant response rating; settings: for Blackgrass plant response rating (0 to 100 scale): 500 g ai/ha, postemergence, 0 is no effect, 100 is complete control; for Blackgrass plant response rating: Postemergence, 125 g ai/ha, 0 to 100 scale (0 no effect, 100 complete control)
Procedure, shortened: as §1

[11] = tested on: wheat (Triticum aestivum); test: Test A postemergence, visual plant response rating; settings: for Wheat plant response rating: 0 to 100 scale (0 no effect, 100 complete control)
Procedure, shortened: as §1

[12] = tested on: ragweed (common ragweed, Ambrosia elatior); test: Test A postemergence, visual plant response rating; settings: for Ragweed plant response rating (0 to 100 scale): 500 g ai/ha, postemergence, 0 is no effect, 100 is complete control; for Ragweed plant response rating: Postemergence, 125 g ai/ha, 0 to 100 scale (0 no effect, 100 complete control)
Procedure, shortened: as §1

[13] = tested on: pigweed (Amaranthus retroflexus); test: Test A postemergence, visual plant response rating; settings: for Pigweed plant response rating (0 to 100 scale): 500 g ai/ha, postemergence, 0 is no effect, 100 is complete control; for Pigweed plant response rating: Postemergence, 125 g ai/ha, 0 to 100 scale (0 no effect, 100 complete control)
Procedure, shortened: as §1

[14] = tested on: Italian ryegrass (Lolium multiflorum); test: Test A postemergence, visual plant response rating; settings: for Ryegrass, Italian plant response rating: 125 g ai/ha, 0 to 100 scale (0 no effect, 100 complete control)
Procedure, shortened: as §1

kochia (Kochia scoparia) [15] = test: Test A postemergence, visual plant response rating; settings: for Kochia plant response rating (0 to 100 scale): 500 g ai/ha, postemergence, 0 is no effect, 100 is complete control; for Kochia plant response rating: Postemergence, 125 g ai/ha, 0 to 100 scale (0 no effect, 100 complete control)
Procedure, shortened: as §1

corn (Zea mays) = test: Test A postemergence, visual plant response rating; settings: for Corn plant response rating (0 to 100 scale): 500 g ai/ha, postemergence, 0 is no effect, 100 is complete control; for Corn plant response rating: Postemergence, 125 g ai/ha, 0 to 100 scale (0 no effect, 100 complete control)
Procedure, shortened: as §1

[16] = tested on: foxtail, giant (giant foxtail, Setaria faberii); test: Test A postemergence, visual plant response rating; settings: for Foxtail, Giant plant response rating (0 to 100 scale): 500 g ai/ha, postemergence, 0 is no effect, 100 is complete control; for Foxtail, Giant plant response rating: Postemergence, 125 g ai/ha, 0 to 100 scale (0 no effect, 100 complete control)
Procedure, shortened: as §1

[17] = tested on: galium (catchweed bedstraw, Galium aparine); test: Test A postemergence, visual plant response rating; settings: for Galium plant response rating (0 to 100 scale): 500 g ai/ha, postemergence, 0 is no effect, 100 is complete control; for Galium plant response rating: Postemergence, 125 g ai/ha, 0 to 100 scale (0 no effect, 100 complete control)
Procedure, shortened: as §1

[18] = tested on: barnyardgrass (Echinochloa crus-galli); test: Test A postemergence, visual plant response rating; settings: for Barnyardgrass plant response rating (0 to 100 scale): 500 g ai/ha, postemergence, 0 is no effect, 100 is complete control; for Barnyardgrass plant response rating: Postemergence, 125 g ai/ha, 0 to 100 scale (0 no effect, 100 complete control)
Procedure, shortened: as §1

[19] = 500 g ai/ha, postemergence, 0 is no effect, 100 is complete control

Row | SMILES | Ragweed plant response rating (0 to 100 scale) ([1]; 500 g ai/ha Preemergence) | Pigweed plant response rating (0 to 100 scale) ([2]; 500 g ai/ha Preemergence) | Ryegrass, Italian plant response rating (0 to 100 scale) ([3]; 500 g ai/ha Preemergence) | Kochia plant response rating (0 to 100 scale) (kochia (Kochia scoparia) [4]; 500 g ai/ha Preemergence) | Foxtail, Giant plant response rating (0 to 100 scale) ([5]; 500 g ai/ha Preemergence) | Barnyardgrass plant response rating (0 to 100 scale) ([6]; 500 g ai/ha Preemergence) | Plant response rating, Ducksalad (0 to 100 scale, 0 is no effect, 100 is complete control) [7] | Plant response rating, Sedge, Umbrella (0 to 100 scale, 0 is no effect, 100 is complete control) [8] | Plant response rating, Rice (0 to 100 scale, 0 is no effect, 100 is complete control) (rice (Oryza sativa)) | Plant response rating, Barnyardgrass (0 to 100 scale, 0 is no effect, 100 is complete control) [9] | Blackgrass plant response rating (0 to 100 scale) [10] | Blackgrass plant response rating [10] | Ragweed plant response rating (0 to 100 scale) [12] | Ragweed plant response rating [12] | Pigweed plant response rating (0 to 100 scale) [13] | Pigweed plant response rating [13] | Ryegrass, Italian plant response rating (0 to 100 scale) [14, 19] | Kochia plant response rating (0 to 100 scale) (kochia (Kochia scoparia) [15]) | Kochia plant response rating (kochia (Kochia scoparia) [15]) | Corn plant response rating (0 to 100 scale) (corn (Zea mays)) | also measured
1 | CON=C(c1c(O)c(C)nn(C)c1=O)c1cccc2sccc12 [Compound 59] | 100 | 70 | 90 | 60 | 70 | 30 | 0 | 0 | 0 | 0 | 80 | 70 | 80 | 60 | 90 | 80 | 100 | 80 | 80 | 20 | Ragweed plant response rating [1]: 30; Pigweed plant response rating [2]: 0; Ryegrass, Italian plant response rating [3]: 30; Kochia plant response rating (kochia (Kochia scoparia) [4]): 10; Foxtail, Giant plant response rating [5]: 30; Barnyardgrass plant response rating [6]: 0; Wheat plant response rating (0 to 100 scale) [11, 19]: 0; Wheat plant response rating ([11]; Postemergence, 125 g ai/ha): 0; Ryegrass, Italian plant response rating ([14]; Postemergence): 80; Corn plant response rating (corn (Zea mays)): 0; Foxtail, Giant plant response rating (0 to 100 scale) [16]: 60; Foxtail, Giant plant response rating [16]: 40; Galium plant response rating (0 to 100 scale) [17]: 90; Galium plant response rating [17]: 70; Barnyardgrass plant response rating (0 to 100 scale) [18]: 50; Barnyardgrass plant response rating [18]: 30
2 | CO/N=C(/c1cccc(F)c1)c1c(O)c(C)nn(C)c1=O [Compound 32] | 40 | 50 | 50 | 10 | 0 | 0 | 0 | 0 | 0 | 0 | 20 | 0 | 80 | 50 | 40 | 40 | 60 | 70 | 20 | 0 | Ragweed plant response rating (0 to 100 scale) ([1]; 125 g ai/ha Preemergence): 20; Pigweed plant response rating (0 to 100 scale) ([2]; 125 g ai/ha Preemergence): 0; Ryegrass, Italian plant response rating (0 to 100 scale) ([3]; 125 g ai/ha Preemergence): 20; Kochia plant response rating (0 to 100 scale) (kochia (Kochia scoparia) [4]; 125 g ai/ha Preemergence): 0; Foxtail, Giant plant response rating (0 to 100 scale) ([5]; 125 g ai/ha Preemergence): 0; Barnyardgrass plant response rating (0 to 100 scale) ([6]; 125 g ai/ha Preemergence): 0; Wheat plant response rating (0 to 100 scale) [11, 19]: 10; Wheat plant response rating ([11]; Postemergence, 125 g ai/ha): 0; Ryegrass, Italian plant response rating ([14]; Postemergence): 40; Corn plant response rating (corn (Zea mays)): 0; Foxtail, Giant plant response rating (0 to 100 scale) [16]: 20; Foxtail, Giant plant response rating [16]: 10; Galium plant response rating (0 to 100 scale) [17]: 80; Galium plant response rating [17]: 70; Barnyardgrass plant response rating (0 to 100 scale) [18]: 20; Barnyardgrass plant response rating [18]: 10
3 | CO/N=C(/c1c(O)c(Cl)nn(C)c1=O)c1cccc2ccccc12 [Compound 145, 6-chloro-5-hydroxy-4-[(E)-(methoxyimino)-1-naphthalenylmethyl]-2-methyl-3(2H)-pyridazinone] | 100 | 90 | 10 | 90 | 80 | 80 | 0 | 0 | 0 | 0 | 70 | 30 | 100 | 100 | 80 | 30 | 10 | 90 | 80 | 0 | Ragweed plant response rating [1]: 100; Pigweed plant response rating [2]: 50; Ryegrass, Italian plant response rating [3]: 0; Kochia plant response rating (kochia (Kochia scoparia) [4]): 70; Foxtail, Giant plant response rating [5]: 50; Barnyardgrass plant response rating [6]: 60; Wheat plant response rating ([11]; Postemergence, 500 g ai/ha): 0; Wheat plant response rating (0 to 100 scale) ([11]; Postemergence, approx. 10 days): 0; Ryegrass, Italian plant response rating (0 to 100 scale) ([14]; Postemergence, rate not given, approx. 10 days): 20; Corn plant response rating (corn (Zea mays)): 0; Foxtail, Giant plant response rating (0 to 100 scale) [16]: 60; Foxtail, Giant plant response rating [16]: 30; Galium plant response rating (0 to 100 scale) [17]: 100; Galium plant response rating [17]: 90; Barnyardgrass plant response rating (0 to 100 scale) [18]: 60; Barnyardgrass plant response rating [18]: 30

— patent US20210045385A1, “PYRIDAZINONE-SUBSTITUTED KETOXIMES AS HERBICIDES” (FMC Corporation, priority 2018, published 2021)
